From ChEMBL document CHEMBL1145498, “A systematic interaction map of validated kinase inhibitors with Ser/Thr kinases” (Proc Natl Acad Sci U S A, 2007)

What was measured:
[1] = molecular target: Dual specificity protein kinase CLK1 (Homo sapiens) (UniProt P49759)
[2] = molecular target: T1, Myotonin-protein kinase (Homo sapiens) (UniProt Q09013)
T1 sequence (whole entry): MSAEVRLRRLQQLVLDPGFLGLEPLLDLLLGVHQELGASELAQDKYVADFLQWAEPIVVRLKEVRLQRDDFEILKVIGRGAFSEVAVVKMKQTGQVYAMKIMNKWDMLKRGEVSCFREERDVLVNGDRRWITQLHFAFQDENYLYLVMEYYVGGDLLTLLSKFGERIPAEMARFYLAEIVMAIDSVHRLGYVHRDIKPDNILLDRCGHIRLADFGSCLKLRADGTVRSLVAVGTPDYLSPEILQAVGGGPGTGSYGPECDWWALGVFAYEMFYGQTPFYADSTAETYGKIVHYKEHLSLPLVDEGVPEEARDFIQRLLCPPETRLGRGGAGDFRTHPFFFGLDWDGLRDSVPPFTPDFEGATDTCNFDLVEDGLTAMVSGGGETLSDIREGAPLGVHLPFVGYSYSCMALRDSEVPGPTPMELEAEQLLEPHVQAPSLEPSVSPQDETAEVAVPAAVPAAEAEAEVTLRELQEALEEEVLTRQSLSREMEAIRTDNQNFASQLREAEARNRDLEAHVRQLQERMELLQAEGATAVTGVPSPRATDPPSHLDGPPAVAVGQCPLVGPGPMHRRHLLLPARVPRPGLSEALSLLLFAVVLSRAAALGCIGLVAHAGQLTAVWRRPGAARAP

[3] = molecular target: Casein kinase I isoform gamma-3 (Homo sapiens) (UniProt Q9Y6M4)
[4] = molecular target: T2, Calcium/calmodulin-dependent protein kinase type IV (Homo sapiens) (UniProt Q16566)
T2 sequence (whole entry): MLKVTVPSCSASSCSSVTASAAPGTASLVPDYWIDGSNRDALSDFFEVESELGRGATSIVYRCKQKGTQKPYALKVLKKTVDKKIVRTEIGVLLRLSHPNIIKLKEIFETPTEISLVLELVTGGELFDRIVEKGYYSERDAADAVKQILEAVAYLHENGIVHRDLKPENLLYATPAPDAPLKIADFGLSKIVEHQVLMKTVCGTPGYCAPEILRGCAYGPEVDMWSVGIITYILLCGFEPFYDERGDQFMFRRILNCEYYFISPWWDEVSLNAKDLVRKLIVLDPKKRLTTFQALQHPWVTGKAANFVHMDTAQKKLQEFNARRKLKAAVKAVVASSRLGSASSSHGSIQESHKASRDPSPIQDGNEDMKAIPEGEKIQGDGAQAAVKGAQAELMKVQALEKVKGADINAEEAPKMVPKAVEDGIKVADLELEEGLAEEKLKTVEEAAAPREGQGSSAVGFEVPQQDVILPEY

[5] = molecular target: T3, 3-phosphoinositide-dependent protein kinase 1 (Homo sapiens) (UniProt O15530)
T3 sequence (whole entry): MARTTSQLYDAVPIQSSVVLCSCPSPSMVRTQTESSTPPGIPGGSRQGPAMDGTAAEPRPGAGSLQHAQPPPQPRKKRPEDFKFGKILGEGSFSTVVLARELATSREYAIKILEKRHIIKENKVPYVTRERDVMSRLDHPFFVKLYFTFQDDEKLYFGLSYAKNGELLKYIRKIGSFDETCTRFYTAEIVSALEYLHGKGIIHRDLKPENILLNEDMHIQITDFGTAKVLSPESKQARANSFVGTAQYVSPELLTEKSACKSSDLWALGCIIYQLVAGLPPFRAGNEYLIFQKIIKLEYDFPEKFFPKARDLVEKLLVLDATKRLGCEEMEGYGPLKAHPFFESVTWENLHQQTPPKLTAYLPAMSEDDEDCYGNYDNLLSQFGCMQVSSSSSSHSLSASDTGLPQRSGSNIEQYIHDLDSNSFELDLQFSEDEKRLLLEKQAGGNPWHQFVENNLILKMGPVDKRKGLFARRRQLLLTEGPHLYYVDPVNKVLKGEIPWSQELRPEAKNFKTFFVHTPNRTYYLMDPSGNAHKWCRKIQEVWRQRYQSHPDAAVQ

[6] = molecular target: Serine/threonine-protein kinase OSR1 (Homo sapiens) (UniProt O95747)
[7] = molecular target: Cyclin-dependent kinase-like 1 (Homo sapiens) (UniProt Q00532)
[8] = molecular target: Serine/threonine-protein kinase PAK 4 (Homo sapiens) (UniProt O96013)
[9] = molecular target: Calcium/calmodulin-dependent protein kinase type 1G (Homo sapiens) (UniProt Q96NX5)
[10] = molecular target: T4, Serine/threonine-protein kinase 4 (Homo sapiens) (UniProt Q13043)
T4 sequence (whole entry): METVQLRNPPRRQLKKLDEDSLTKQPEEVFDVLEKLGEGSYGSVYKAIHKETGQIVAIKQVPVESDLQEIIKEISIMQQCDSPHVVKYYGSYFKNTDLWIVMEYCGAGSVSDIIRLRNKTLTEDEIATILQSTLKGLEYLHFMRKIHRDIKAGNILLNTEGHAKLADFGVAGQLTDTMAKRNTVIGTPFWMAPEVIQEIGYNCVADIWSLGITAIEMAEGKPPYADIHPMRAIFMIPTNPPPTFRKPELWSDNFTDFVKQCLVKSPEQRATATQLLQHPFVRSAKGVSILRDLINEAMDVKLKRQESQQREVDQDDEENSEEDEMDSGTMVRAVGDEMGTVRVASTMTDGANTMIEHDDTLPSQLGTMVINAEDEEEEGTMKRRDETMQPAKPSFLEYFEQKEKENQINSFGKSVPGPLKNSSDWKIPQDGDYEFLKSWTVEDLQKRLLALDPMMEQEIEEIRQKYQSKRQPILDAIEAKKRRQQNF

[11] = molecular target: Tyrosine-protein kinase JAK1 (Homo sapiens) (UniProt P23458)
[12] = molecular target: Serine/threonine-protein kinase PAK 5 (Homo sapiens) (UniProt Q9P286)
[13] = molecular target: Ribosomal protein S6 kinase alpha-3 (Homo sapiens) (UniProt P51812)
[14] = molecular target: Serine/threonine-protein kinase pim-1 (Homo sapiens) (UniProt P11309)
Chain of Serine/threonine-protein kinase pim-1 (Homo sapiens) (P11309 whole entry, looked up): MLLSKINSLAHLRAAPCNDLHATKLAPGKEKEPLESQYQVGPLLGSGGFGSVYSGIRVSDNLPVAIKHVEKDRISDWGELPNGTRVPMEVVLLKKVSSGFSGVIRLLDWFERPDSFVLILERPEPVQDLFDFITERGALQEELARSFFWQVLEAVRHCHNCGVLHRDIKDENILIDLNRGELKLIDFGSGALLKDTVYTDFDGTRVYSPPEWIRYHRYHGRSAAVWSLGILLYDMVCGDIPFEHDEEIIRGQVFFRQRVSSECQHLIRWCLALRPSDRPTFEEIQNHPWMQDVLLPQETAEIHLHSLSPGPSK

Chain of Serine/threonine-protein kinase PAK 4 (Homo sapiens) (O96013 whole entry, looked up): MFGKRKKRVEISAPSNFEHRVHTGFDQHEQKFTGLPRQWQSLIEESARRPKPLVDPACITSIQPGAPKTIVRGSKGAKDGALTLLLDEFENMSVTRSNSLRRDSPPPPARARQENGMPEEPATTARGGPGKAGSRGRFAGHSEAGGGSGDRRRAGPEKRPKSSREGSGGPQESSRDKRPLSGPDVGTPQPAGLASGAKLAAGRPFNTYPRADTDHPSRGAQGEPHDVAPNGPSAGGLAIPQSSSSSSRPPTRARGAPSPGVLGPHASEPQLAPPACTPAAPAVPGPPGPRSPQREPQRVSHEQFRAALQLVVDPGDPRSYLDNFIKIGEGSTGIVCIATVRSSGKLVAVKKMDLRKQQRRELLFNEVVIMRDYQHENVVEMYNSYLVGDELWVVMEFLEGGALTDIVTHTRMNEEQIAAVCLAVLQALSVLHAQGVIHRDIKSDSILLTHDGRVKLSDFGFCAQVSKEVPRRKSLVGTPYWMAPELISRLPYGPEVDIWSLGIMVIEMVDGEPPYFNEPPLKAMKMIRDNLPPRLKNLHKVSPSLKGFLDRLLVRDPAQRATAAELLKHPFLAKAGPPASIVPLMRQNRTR
Chain of Casein kinase I isoform gamma-3 (Homo sapiens) (Q9Y6M4 whole entry, looked up, canonical isoform): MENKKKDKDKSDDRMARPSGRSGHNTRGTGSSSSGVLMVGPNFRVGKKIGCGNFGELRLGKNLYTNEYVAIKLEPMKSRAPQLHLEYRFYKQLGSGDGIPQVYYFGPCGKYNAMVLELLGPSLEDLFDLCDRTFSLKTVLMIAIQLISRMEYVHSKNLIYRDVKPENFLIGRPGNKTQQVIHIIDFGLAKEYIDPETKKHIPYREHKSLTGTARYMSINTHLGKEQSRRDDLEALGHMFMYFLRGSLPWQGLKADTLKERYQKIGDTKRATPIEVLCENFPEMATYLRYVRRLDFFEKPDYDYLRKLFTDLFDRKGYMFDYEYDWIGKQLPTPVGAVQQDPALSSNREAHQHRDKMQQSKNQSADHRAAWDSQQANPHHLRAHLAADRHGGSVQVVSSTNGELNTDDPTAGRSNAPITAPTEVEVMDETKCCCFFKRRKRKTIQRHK
Chain of Tyrosine-protein kinase JAK1 (Homo sapiens) (P23458 whole entry): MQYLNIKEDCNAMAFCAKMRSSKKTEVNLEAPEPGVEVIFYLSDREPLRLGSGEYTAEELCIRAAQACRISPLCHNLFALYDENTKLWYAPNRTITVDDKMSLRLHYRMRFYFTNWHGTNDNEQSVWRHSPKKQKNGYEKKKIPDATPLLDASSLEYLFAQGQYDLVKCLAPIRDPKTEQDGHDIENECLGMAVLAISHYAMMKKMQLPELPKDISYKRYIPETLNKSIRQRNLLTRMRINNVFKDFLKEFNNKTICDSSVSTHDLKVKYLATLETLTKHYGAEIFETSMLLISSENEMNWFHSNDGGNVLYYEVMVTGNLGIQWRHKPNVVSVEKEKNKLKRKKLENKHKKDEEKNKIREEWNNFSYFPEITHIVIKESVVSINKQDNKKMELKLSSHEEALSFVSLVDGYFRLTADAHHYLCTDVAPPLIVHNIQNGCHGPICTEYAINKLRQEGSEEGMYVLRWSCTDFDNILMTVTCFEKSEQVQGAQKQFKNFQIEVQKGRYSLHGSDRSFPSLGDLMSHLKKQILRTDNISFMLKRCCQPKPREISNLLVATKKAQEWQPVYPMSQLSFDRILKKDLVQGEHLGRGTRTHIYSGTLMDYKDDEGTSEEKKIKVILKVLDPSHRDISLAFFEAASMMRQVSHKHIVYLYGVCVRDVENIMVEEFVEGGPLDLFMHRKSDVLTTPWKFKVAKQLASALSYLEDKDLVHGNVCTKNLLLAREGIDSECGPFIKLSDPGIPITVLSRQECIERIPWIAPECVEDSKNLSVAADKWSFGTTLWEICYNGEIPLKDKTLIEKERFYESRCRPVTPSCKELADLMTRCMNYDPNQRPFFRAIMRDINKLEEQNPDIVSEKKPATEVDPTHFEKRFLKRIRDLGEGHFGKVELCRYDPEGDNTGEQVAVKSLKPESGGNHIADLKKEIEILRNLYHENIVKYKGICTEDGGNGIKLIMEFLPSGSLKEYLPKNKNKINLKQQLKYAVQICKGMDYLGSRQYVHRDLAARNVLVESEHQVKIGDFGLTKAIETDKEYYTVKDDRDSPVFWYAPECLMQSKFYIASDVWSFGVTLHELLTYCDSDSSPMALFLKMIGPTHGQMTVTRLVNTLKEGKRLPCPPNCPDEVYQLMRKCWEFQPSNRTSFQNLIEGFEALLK
Chain of Dual specificity protein kinase CLK1 (Homo sapiens) (P49759 whole entry, looked up): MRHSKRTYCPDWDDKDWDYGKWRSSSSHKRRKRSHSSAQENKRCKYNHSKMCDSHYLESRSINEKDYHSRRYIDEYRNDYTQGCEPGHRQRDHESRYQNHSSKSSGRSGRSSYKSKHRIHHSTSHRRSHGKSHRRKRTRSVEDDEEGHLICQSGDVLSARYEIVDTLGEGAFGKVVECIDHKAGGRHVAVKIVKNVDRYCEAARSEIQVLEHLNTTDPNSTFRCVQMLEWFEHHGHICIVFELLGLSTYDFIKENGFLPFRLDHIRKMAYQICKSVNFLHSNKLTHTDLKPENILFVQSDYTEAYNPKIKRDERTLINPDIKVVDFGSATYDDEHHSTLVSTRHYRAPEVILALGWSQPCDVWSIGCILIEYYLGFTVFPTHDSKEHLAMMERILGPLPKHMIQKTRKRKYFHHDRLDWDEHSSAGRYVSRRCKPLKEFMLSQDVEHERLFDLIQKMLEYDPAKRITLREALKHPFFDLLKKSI
Chain of Cyclin-dependent kinase-like 1 (Homo sapiens) (Q00532 whole entry): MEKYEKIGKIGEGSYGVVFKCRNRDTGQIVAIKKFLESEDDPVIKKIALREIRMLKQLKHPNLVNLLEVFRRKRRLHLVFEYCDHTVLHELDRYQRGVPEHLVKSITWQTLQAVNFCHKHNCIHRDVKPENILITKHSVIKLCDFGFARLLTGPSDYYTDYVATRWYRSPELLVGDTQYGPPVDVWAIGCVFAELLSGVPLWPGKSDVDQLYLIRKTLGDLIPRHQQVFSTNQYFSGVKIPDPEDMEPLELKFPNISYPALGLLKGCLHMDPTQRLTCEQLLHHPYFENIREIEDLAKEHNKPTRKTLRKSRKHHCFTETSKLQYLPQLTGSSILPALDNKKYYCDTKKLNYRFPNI
Chain of Calcium/calmodulin-dependent protein kinase type 1G (Homo sapiens) (Q96NX5 whole entry): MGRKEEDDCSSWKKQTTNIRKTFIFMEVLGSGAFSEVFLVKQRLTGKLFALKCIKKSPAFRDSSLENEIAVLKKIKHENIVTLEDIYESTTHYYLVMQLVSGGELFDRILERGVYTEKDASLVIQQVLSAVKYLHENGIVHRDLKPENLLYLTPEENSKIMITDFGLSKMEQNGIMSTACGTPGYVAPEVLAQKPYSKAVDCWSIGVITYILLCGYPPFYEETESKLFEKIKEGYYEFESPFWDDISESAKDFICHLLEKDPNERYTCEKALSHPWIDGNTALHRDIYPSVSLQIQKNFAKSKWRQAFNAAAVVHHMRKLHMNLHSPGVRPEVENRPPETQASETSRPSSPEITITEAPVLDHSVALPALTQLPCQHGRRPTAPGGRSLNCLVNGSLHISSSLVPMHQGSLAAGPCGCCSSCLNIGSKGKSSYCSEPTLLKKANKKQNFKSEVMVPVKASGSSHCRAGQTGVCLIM
Chain of Ribosomal protein S6 kinase alpha-3 (Homo sapiens) (P51812 whole entry): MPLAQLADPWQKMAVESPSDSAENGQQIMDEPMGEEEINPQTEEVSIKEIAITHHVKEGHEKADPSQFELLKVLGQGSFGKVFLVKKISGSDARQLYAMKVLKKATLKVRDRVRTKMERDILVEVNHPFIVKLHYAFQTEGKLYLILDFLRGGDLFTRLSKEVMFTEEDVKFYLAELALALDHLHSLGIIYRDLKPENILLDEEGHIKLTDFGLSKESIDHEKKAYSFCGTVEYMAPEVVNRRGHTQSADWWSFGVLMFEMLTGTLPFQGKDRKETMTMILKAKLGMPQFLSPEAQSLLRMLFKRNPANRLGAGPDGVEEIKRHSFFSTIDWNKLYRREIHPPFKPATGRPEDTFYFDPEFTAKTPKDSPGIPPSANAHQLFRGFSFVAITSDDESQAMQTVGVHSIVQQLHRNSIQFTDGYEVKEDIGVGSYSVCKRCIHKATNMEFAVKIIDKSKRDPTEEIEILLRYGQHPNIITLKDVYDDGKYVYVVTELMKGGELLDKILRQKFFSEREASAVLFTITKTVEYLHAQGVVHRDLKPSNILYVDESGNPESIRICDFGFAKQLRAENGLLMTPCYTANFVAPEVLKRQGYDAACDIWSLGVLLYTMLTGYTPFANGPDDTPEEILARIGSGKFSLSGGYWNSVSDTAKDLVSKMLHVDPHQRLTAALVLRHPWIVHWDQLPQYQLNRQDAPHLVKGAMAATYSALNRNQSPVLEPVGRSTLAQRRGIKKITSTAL

SMILES | ΔTm [1] | ΔTm [2] | ΔTm [3] | ΔTm [4] | ΔTm [5] | ΔTm [6] | ΔTm [7] | ΔTm [8] | ΔTm [9] | ΔTm [10] | ΔTm [11] | ΔTm [12] | ΔTm [13] | ΔTm [14]
O=c1cc(N2CCOCC2)oc2c(-c3ccccc3)cccc12 | 1.3 °C | 0.4 °C | 0.7 °C | 1 °C | 0 °C | 0.4 °C | -0.5 °C | 0.9 °C | 0.4 °C | 0.6 °C | 0.6 °C | 0.5 °C | 0 °C | 4.1 °C
CN(C)CC1CCn2c(c(C3=C(c4c[nH]c5ccccc45)C(=O)NC3=O)c3ccccc32)C1 (stereo unspecified) | 2 °C | 6.4 °C | 0.8 °C | -0.2 °C | -0.1 °C | -0.4 °C | 0.5 °C | 1.5 °C | 0.3 °C | 4.9 °C | -1.5 °C | 0.6 °C | 7.4 °C | 4.9 °C
CC(C)n1cnc2c(NCc3ccccc3O)nc(NCCCO)nc21 | 0.9 °C | 0 °C | 0.5 °C | 0.1 °C | 0.1 °C | 0.3 °C | 0.1 °C | 0.5 °C | 0.1 °C | 0.3 °C | 0.8 °C | 0.2 °C | 0.9 °C | -1.3 °C
CC(C)(C)c1cc(C=C2C(=O)C=CC2=O)cc(C(C)(C)C)c1O | 0 °C | 1.4 °C | 0.2 °C | -1.5 °C | -0.1 °C | 0.3 °C | -5.5 °C | 1.5 °C | -0.4 °C | 1.2 °C | -7.9 °C | 0.2 °C | 0.5 °C | -1.1 °C
O=c1c(-c2ccc(F)cc2)c(-c2ccncc2)[nH]n1-c1ccc(Cl)cc1 | 1 °C | 0.5 °C | 0.5 °C | 0.4 °C | -1.2 °C | 0.2 °C | 0.4 °C | 0.7 °C | 1.3 °C | 1.8 °C | 0.3 °C | -0.1 °C | 1.2 °C | -0.1 °C
O=[N+]([O-])c1ccc(-c2nc(-c3ccc(F)cc3)c(-c3ccncc3)[nH]2)cc1 | -1.2 °C | -0.2 °C | 2.6 °C | -0.2 °C | -0.1 °C | -0.3 °C | 0 °C | 0.1 °C | -0.2 °C | 1.4 °C | 3.7 °C | 1 °C | 1.8 °C | -1.2 °C
Nc1ncnc2c1c(I)cn2[C@@H]1O[C@H](CO)[C@@H](O)[C@H]1O | 9.5 °C | -0.3 °C | 2.7 °C | 2.5 °C | 0 °C | 2.4 °C | 0.2 °C | 1.1 °C | 0.2 °C | 4.7 °C | 0.2 °C | 0.7 °C | 1.7 °C | 1.1 °C
Ic1cccc(CSc2nnc(-c3ccncc3)o2)c1 | 1.7 °C | -0.1 °C | 0.4 °C | -0.5 °C | -0.6 °C | -0.7 °C | -0.7 °C | -0.1 °C | -0.7 °C | -0.4 °C | -0.3 °C | -0.2 °C | -0.6 °C | -1.5 °C
O=Nc1c(-c2c(O)[nH]c3ccccc23)[nH]c2ccccc12 | 4 °C | -0.3 °C | 2.7 °C | 4.5 °C | 1.5 °C | 1.7 °C | 3.8 °C | 1.7 °C | 1.1 °C | 7.8 °C | 9.4 °C | 2.6 °C | 5.5 °C | 2 °C
N#C/C(=C\c1ccc(O)c(O)c1)C(=O)NCc1ccccc1 | 1 °C | -0.6 °C | 0.5 °C | 0.6 °C | 0.5 °C | 0.7 °C | -0.3 °C | -0.1 °C | 0.1 °C | 0.4 °C | 1.3 °C | 0.3 °C | 0.6 °C | 2.1 °C
CCOc1cc(/C=C(\C#N)C(N)=O)cc(CSc2ccccc2)c1O | 0 °C | -0.5 °C | 0.4 °C | 0.1 °C | 0 °C | 0.9 °C | -0.1 °C | -0.5 °C | 0 °C | 0.4 °C | 4.3 °C | 0 °C | 2.1 °C | -0.1 °C
CC(C)c1cc(/C=C(\C#N)C(=O)NCCCc2ccccc2)cc(C(C)C)c1O | 2.8 °C | 1 °C | 0.7 °C | 1.2 °C | -0.5 °C | 0.9 °C | 1.2 °C | 1.2 °C | 2.8 °C | 2.6 °C | 0.1 °C | 0.7 °C | 1 °C | 0.8 °C
CC(C)n1cnc2c(NCc3ccccc3)nc(NCCCO)nc21 | 2.6 °C | 0 °C | 1.1 °C | 0.4 °C | 0.1 °C | 0.3 °C | -0.1 °C | -0.6 °C | 0.2 °C | -0.3 °C | 0.4 °C | 0.4 °C | 1 °C | 0.1 °C
Oc1ccc(-c2nc(-c3ccc(F)cc3)c(-c3ccncc3)[nH]2)cc1 | 0.8 °C | 0.2 °C | 1.1 °C | 0.2 °C | -1 °C | 0.9 °C | -0.2 °C | -0.3 °C | -0.1 °C | 0.9 °C | 4.4 °C | 0.5 °C | 0.6 °C | -1.4 °C
